Among the data in PubChem BioAssay AID977605 (Broad Institute, 2014) are activation values, retold here.

Molecules are shown by their SMILES. Calls of active or inactive are those of the source.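 The calls were made as follows: active = fitted curve reaches 40% activation below the top valid tested dose, in every test run; inconclusive = test runs disagree on the call; inactive = the rest, including effects opposite to the expected direction.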

One assay is described as follows: E-selectin inducers in HUVECs, dose response, imaging, HUVEC, cherry-picked samples (AID 977605).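 Also: signal is the share of imaged cells scored positive for E-selectin.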 As to conditions: HUVEC E-selectin immunostaining, at 10 µM (top of the series), percent of TNF-alpha response over vehicle.
As for `C[C@@H]1CN([C@H](C)CO)C(=O)c2c(c3ccccc3n2C)-c2ccccc2CO[C@@H]1CN(C)Cc1ccccc1C(F)(F)F`, the activation was 0.002% (inactive).

Staying with this assay, now noted: HUVEC E-selectin immunostaining, at 19.5 µM (top of the series), percent of TNF-alpha response over vehicle.
Take `C[C@@H]1CN([C@H](C)CO)C(=O)c2cc(NC(=O)Nc3ccc4c(c3)OCO4)ccc2O[C@H]1CN(C)S(=O)(=O)c1ccc(F)cc1`: the activation is -0.11% (inactive). Same read-out and setting: the same measure for `N#Cc1ccc(-c2csc(NC3=NCCCCC3)n2)cc1`: -0.002% (inactive); for `C[C@H](CO)N1C[C@H](C)[C@H](CN(C)Cc2ccc(C(F)(F)F)cc2)Oc2ccc(NC(=O)Cc3cn(C)c4ccccc34)cc2CC1=O`: 0.156% (inactive); for `O=C(COC(=O)c1ccccc1NCCO)NNC(=O)c1cccs1`: -0.279% (inactive). Still for that read-out and setting: next, `COc1ccc(C)cc1NC(=O)C(NCC(O)c1ccccc1)c1ccccc1` (stereo unspecified): -0.094% (inactive); `C[C@@H]1CN([C@H](C)CO)C(=O)c2cc(NS(=O)(=O)c3ccccc3)ccc2O[C@@H]1CN(C)C(=O)NC1CCCCC1`: -0.139% (inactive); `C[C@@H]1CCCCO[C@@H](CN(C)C(=O)Cc2ccccc2)[C@@H](C)CN([C@H](C)CO)C(=O)c2cc(NS(=O)(=O)c3cccs3)ccc2O1`: 0.129% (inactive). For `COc1ccc(CN(C)C[C@@H]2Oc3ccc(NC(=O)Nc4ccc(F)cc4)cc3CC(=O)N([C@@H](C)CO)C[C@@H]2C)cc1`, the activation was 0.025% (inactive). Turning to `CCCN1CCN(C(=O)c2ccc(CS(=O)c3ccc(Cl)cc3)o2)CC1` (stereo unspecified), the activation is 0.214% (inactive). For the compound `CCN(CC)CCN(C(=O)Cn1nnc(-c2ccc(C)o2)n1)C(C(=O)NC(C)(C)C)c1cccs1` (stereo unspecified), the activation is -0.044% (inactive). Regarding `CS(=O)(=O)N1CCc2cc(C(=O)NC3CC3)ccc21`, the activation is 0.099% (inactive).

`COc1ccc(S(=O)(=O)Nc2ccc3c(c2)CC(=O)N([C@H](C)CO)C[C@H](C)[C@H](CN(C)C(=O)NC2CCCCC2)O3)cc1`: the activation is -0.057% (inactive).

Regarding `COc1ccc(S(=O)(=O)N(C)C[C@@H]2Oc3ccc(NC(=O)c4ccncc4)cc3C(=O)N([C@H](C)CO)C[C@H]2C)cc1`, the activation is -0.082% (inactive). Turning to `COc1cccc(NC(=O)c2ccc(OC(F)(F)F)cc2)c1`, the activation is 0.305% (inactive). The same measure, in the same setting: the same measure for `C[C@H](CO)N1C[C@H](C)[C@@H](CN(C)C)Oc2ccc(NC(=O)CCCN(C)C)cc2CC1=O`: -0.172% (inactive); for `Cn1nc(C(=O)NNC(=O)c2ccccc2Br)c2ccccc2c1=O`: -0.008% (inactive). The same measure, in the same setting: the same measure for `C[C@@H]1CN([C@H](C)CO)C(=O)c2cccc(NC(=O)Nc3ccccc3)c2O[C@@H]1CN(C)S(=O)(=O)c1ccccc1`: 0.268% (inactive). Still for that read-out and setting: the same measure for `C[C@@H]1CN([C@@H](C)CO)C(=O)Cc2cc(NC(=O)Nc3ccc(F)cc3)ccc2O[C@@H]1CN(C)Cc1ccc(C(=O)O)cc1`: -0.134% (inactive). With `C[C@@H]1CN([C@H](C)CO)C(=O)c2cc(Br)cnc2O[C@@H]1CN(C)C(=O)C1CC1`, the activation was -0.087% (inactive). The same measure, in the same setting: the same measure for `C/C(=N\NC(=O)C1CC1)c1ccc(Cl)cc1`: -0.246% (inactive); for `C[C@H](CO)N1C[C@H](C)[C@@H](CN(C)S(=O)(=O)c2cccs2)Oc2ccc(NS(=O)(=O)c3ccc(Cl)cc3)cc2CC1=O`: 0.125% (inactive); for `COc1ccc(NC(=O)NC2(C(=O)N3CCOCC3)CCCCC2)cc1`: 0.439% (inactive). Same read-out and setting: next, `C[C@H]1CN([C@@H](C)CO)C(=O)c2cc(N(C)C)ccc2O[C@H]1CN(C)Cc1ccc(C(=O)O)cc1`: 0.082% (inactive); `C[C@@H]1CN([C@@H](C)CO)C(=O)c2cccc(NS(=O)(=O)c3cn(C)cn3)c2O[C@H]1CN(C)C(=O)Nc1ccc2c(c1)OCO2`: -0.015% (inactive). On the same count and under the same terms, next, `C[C@H](CO)N1C[C@H](C)[C@H](CN(C)Cc2ccc(Oc3ccccc3)cc2)Oc2c(NS(C)(=O)=O)cccc2C1=O`: 3.2% (inactive); `C[C@@H]1CN([C@H](C)CO)C(=O)c2cccc(NC(=O)c3ccncc3)c2O[C@H]1CN(C)S(=O)(=O)c1ccccc1`: 2.7% (inactive). Regarding `C[C@@H]1CN([C@@H](C)CO)C(=O)Cc2cc(NC(=O)Cc3ccccc3)ccc2O[C@H]1CN(C)C(=O)Nc1cccc2ccccc12`, the activation was -0.158% (inactive). Same read-out and setting: next, `C[C@H](CO)N1C[C@H](C)[C@@H](CN(C)C)Oc2cc(C#Cc3ccccc3F)ccc2S1(=O)=O`: 0.115% (inactive); `C[C@H]1CN([C@@H](C)CO)C(=O)c2cc(NC(=O)NC3CCCCC3)ccc2O[C@@H]1CN(C)S(=O)(=O)c1ccc(Cl)cc1`: 2.58% (inactive). On the same count and under the same terms, the same measure for `C=C(C)CCC(C)N1CCC(n2nccc2NC(=O)CCOc2ccccc2)CC1` (stereo unspecified): -0.056% (inactive); for `O=C(CN(Cc1ccc(F)cc1)C(=O)CNS(=O)(=O)c1ccc(F)cc1)NCc1ccco1`: -0.246% (inactive). Still for that read-out and setting: next, `C[C@@H]1CN([C@@H](C)CO)C(=O)c2cc(NC(=O)Cc3ccccc3)ccc2O[C@@H]1CN(C)C(=O)Nc1cccc2ccccc12`: -0.101% (inactive). `O=C(NC1CCCC1)c1cc(-c2ccccc2O)on1`: the activation was 0.323% (inactive). For `CS(=O)(=O)N1CCc2cc(S(=O)(=O)NCCNS(=O)(=O)c3ccc4c(c3)CCN4S(C)(=O)=O)ccc21`, the activation was 0.185% (inactive). On the same count and under the same terms, the same measure for `CCOC(=O)[C@]12CCCC=C1N(Cc1ccccc1)C(=O)[C@H](CC(=O)NCc1cccc3ccccc13)C2`: 0.13% (inactive); for `CC12CCC(=O)N1C(C(=O)Nc1cc(Cl)ccc1N1CCOCC1)CS2` (stereo unspecified): -0.124% (inactive). Same read-out and setting: the same measure for `C[C@H](CO)N1C[C@H](C)[C@H](CN(C)S(=O)(=O)c2ccc(Cl)cc2)Oc2c(NC(=O)C3CCCCC3)cccc2C1=O`: 0.576% (inactive). Same read-out and setting: the same measure for `Cc1noc(C)c1NC(=O)Nc1ccc2c(c1)CC(=O)N([C@@H](C)CO)C[C@H](C)[C@H](CN(C)Cc1ccc(Oc3ccccc3)cc1)O2`: 0.075% (inactive); for `COC(=O)CCCn1cc(CN2CC(N3CCN(Cc4ccccc4F)CC3)CS2(=O)=O)nn1` (stereo unspecified): -0.246% (inactive).

Still in this assay, the particulars now being: HUVEC E-selectin immunostaining, at 21 µM (top of the series), percent of TNF-alpha response over vehicle.
In the case of `Cc1noc(C)c1S(=O)(=O)Nc1ccc2c(c1)CC(=O)N([C@H](C)CO)C[C@H](C)[C@@H](CN(C)Cc1ccc(-c3ccccc3)cc1)O2`, the activation was -0.276% (inactive). On the same count and under the same terms, the same measure for `CC(C)NC(=O)N(C)C[C@H]1Oc2ccc(NC(=O)CCC(F)(F)F)cc2CC(=O)N([C@@H](C)CO)C[C@H]1C`: 5.5% (inactive); for `C[C@@H]1CN([C@H](C)CO)C(=O)c2cc(NC(=O)C3CCCCC3)ccc2O[C@H]1CN(C)C(=O)Nc1ccc2c(c1)OCO2`: 4.77% (inactive). Still for that read-out and setting: next, `COc1ccc(S(=O)(=O)N(C)C[C@H]2Oc3ccc(NC(=O)Nc4ccc5c(c4)OCO5)cc3CC(=O)N([C@@H](C)CO)C[C@H]2C)cc1`: 0.529% (inactive); `C[C@@H]1CN([C@@H](C)CO)C(=O)c2cccc(NC(=O)c3ccncc3)c2O[C@H]1CN(C)C(=O)Nc1cccc2ccccc12`: 1.89% (inactive).

Turning to `C[C@@H]1CN([C@H](C)CO)C(=O)c2cc(NC(=O)CCCCCC(=O)Nc3ccccc3N)ccc2O[C@H]1CN(C)C(=O)Nc1ccc2c(c1)OCO2`, the activation is -0.113% (inactive).
